Source: patent US20120214842A1, “METHODS FOR TREATING DISEASES OF THE RETINA” (priority 2011, published 2012)

Tested on: ABCA4/RDH8 mouse model
Test: Light-induced retinal degeneration in ABCA4/RDH8 mouse model (ERG, retinal histology, SLO autofluorescence)
Type: in vivo
Conditions: 10 mg/kg twice daily IP, 10,000 lux light for 30 min on day 3
Method: The invention is illustrated by the following example. The compound of the invention was tested with the following experimental protocol: (1) Mice are dosed twice daily at 10 mg/kg or vehicle, IP. (2) On day 3, mice are exposed to 10,000 lux light for 30 min, 2 h after the first dosing and 6 h before the last dosing. (3) On day 11 ERG measurements are taken. (4) On day 12, mice are sacrificed for retinal histology. The ERG functional assay measures the functional integrity of retina. […] In the model, autofluorescence appears as the retina degenerates.

Structure (SMILES): Cn1cc(-c2ccncc2)c(-c2ccc(OCc3ccc4ccccc4n3)cc2)n1 [MP-10, 2-[4-(1-methyl-4-pyridin-4-yl-1H-pyrazol-3-yl)-phenoxymethyl]-quinoline]
- loss of ERG function (functional integrity of retina) (ERG on day 11, vs vehicle, FIG. 1): prevents loss of ERG function
- autofluorescence in retina measured by SLO (FIG. 3): reduces the appearance of autofluorescence
- photoreceptor cell loss (retinal histology grade; higher grade indicates more loss) (histology on day 12, FIG. 2): protects photoreceptor cell loss
